# Measurements taken from US11020414B2, “Antimicrobial compositions with cysteamine” (priority 2010, dated 2021).
# Several values for one entry are separate records, joined by “and”; a condition that tells them apart may be missing. Identical values can stand only once. Counter-ions that a name gives are not always drawn. Like-named read-outs stand apart in the source and are kept apart here.
# What was measured:
# [1] = system: Pseudomonas aeruginosa Pa058; test: FIC index of combinations with conventional antibiotics, strain Pa058; format: cell-based; settings: strain Pa058 (Col^R, Cip^R Tob^R); for FICI (Additive) Cip: in combination with Ciprofloxacin; for FICI (Additive) Gent: in combination with Gentamicin
# Description: (§1) The bacterial inoculum was established by the dilution method from actively-growing cultures in Mueller-Hinton (MH) broth, standardized with 0.5 McFarland turbidity standard as described in the CLSI method M26-A.
# (§2) Both the bacterial inoculum and the antimicrobial agents, including the compounds structurally related to cysteamine, were added simultaneously to the plates. The plates were incubated at 37° C. for 24 h and the optical density was read at 625 nm on a microtitre plate reader (BioTek Powerwave XS, Winooski, USA). The MIC was obtained as the lowest concentration of antimicrobial showing total inhibition of bacterial growth.
# (§3) The FIC corresponds to an interaction coefficient indicating whether the combination of antimicrobial agents is synergistic, additive, antagonist or neutral. The FIC is determined by comparing the activity of an agent in combination (MIC of agent A+agent B) with the activity of the agent alone (MIC of agent A or agent B) as follow (Singh et al., 2000): FIC=MICA[combination]/MICA[alone]+MICB[combination]/MICB[alone]
# (§4) Additive combinations of two antimicrobial agents are indicated by a FIC index of 1, whereas a FIC index<1 indicates synergistic combinations. Neutral combinations would give a FIC between 1 and 4, a FIC index higher than 4 indicates antagonist effects between the two antimicrobial agents.
# (§5) The FIC was also calculated to assess the interaction of two antimicrobial agents in combination against bacterial samples.
# [2] = system: Pseudomonas aeruginosa Pa14; test: FIC index of combinations with conventional antibiotics, strain Pa14; format: cell-based; settings: strain Pa14 (Col^R); for FICI (Additive) Col: in combination with Colistin; for FICI (Additive) Gent: in combination with Gentamicin; for FICI (Additive) Tob: in combination with Tobramycin
# Description: as §1, §2, §3, §4, §5
# [3] = system: Pseudomonas aeruginosa Pa57388D; test: FIC index of combinations with conventional antibiotics, strain Pa57388D; format: cell-based; settings: strain Pa57388D (Col^R, Gent^R); for FICI (Additive) Tob / FICI (Synergy) Tob: in combination with Tobramycin
# Description: as §1, §2, §3, §4, §5
# [4] = system: Pseudomonas aeruginosa Pa01; test: FIC index of combinations with conventional antibiotics, strain Pa01; format: cell-based; settings: strain Pa01 (Col^R); for FICI (Additive) Cip: in combination with Ciprofloxacin
# Description: as §1, §2, §3, §4, §5
# [5] = system: Pseudomonas aeruginosa Pa57388A; test: FIC index of combinations with conventional antibiotics, strain Pa57388A; format: cell-based; settings: strain Pa57388A (Col^R); for FICI (Additive) Gent: in combination with Gentamicin; for FICI (Additive) Tob: in combination with Tobramycin
# Description: as §1, §2, §3, §4, §5
# [6] = system: Pseudomonas aeruginosa Pa14; test: MIC determination, strain Pa14; format: cell-based
# Description: as §1
# as §2, with “The MIC was obtained as the lowest concentration of antimicrobial showing total inhibition of bacterial growth.” left out
# (§6) A number of compounds related in chemical structure to cysteamine were examined for antimicrobial activity; cystamine (dihydrochloride salt), taurine and 2,3-dimercaptosuccinic acid. Other compounds chemically related to cysteamine are known, but are toxic, and are therefore of no utility in a drug of this nature.
# [7] = system: Pseudomonas aeruginosa Pa058; test: MIC determination, strain Pa058; format: cell-based
# Description: as §1
# as §2, with “The MIC was obtained as the lowest concentration of antimicrobial showing total inhibition of bacterial growth.” left out
# as §6
# [8] = system: Pseudomonas aeruginosa Pa01; test: MIC determination, strain Pa01; format: cell-based
# Description: as §1
# as §2, with “The MIC was obtained as the lowest concentration of antimicrobial showing total inhibition of bacterial growth.” left out
# as §6
# [9] = system: Pseudomonas aeruginosa NH57388A; test: MIC determination, strain NH57388A; format: cell-based
# Description: as §1
# as §2, with “The MIC was obtained as the lowest concentration of antimicrobial showing total inhibition of bacterial growth.” left out
# as §6
# [10] = system: P. aeruginosa PAO1 biofilm; test: Minimum biofilm eradication concentration against established biofilm (FIG. 4); format: cell-based, Pseudomonas aeruginosa
# [11] = system: Burkholderia cepacia NCTC10743; test: MIC100 and FIC of cysteamine and tobramycin, MH broth (CLSI) and artificial sputum medium; format: cell-based
# Description: as §2, §3
# (§7) The complex pathophysiology of CF is characterized by airway obstruction caused by abnormal mucus secretion and infection, with 60-80% of patients being chronically infected with the biofilm-forming bacteria Pseudomonas aeruginosa (George et al., 2009). With a prevalence of up to 10% in adult CF patients, B. cepacia complex is a rare but major concern due to its high virulence, morbidity and transmissibility (O'Malley, 2009; Brüssow, 2012). We tested the antimicrobial activity of cysteamine-tobramycin combinations in artificial sputum medium (Yang, et al., 2011) against 4 P. aeruginosa (PAO1, ATCC27853, DSMZ1128 and DSMZ1299) and 2 B. cepacia complex strains (NCTC10743 and NCTC10744).
# [12] = system: Burkholderia cepacia NCTC10744; test: as above; format: cell-based; settings: read-out: MIC100, agent alone
# Description: as §2, §3, §7
# [13] = system: 4 P. aeruginosa (PAO1, ATCC27853, DSMZ1128 and DSMZ1299) and 2 B. cepacia complex strains (NCTC10743 and NCTC10744); test: microbe, parasite or virus in culture; format: cell-based, Pseudomonas aeruginosa; Burkholderia cepacia complex; settings: all strains
# Excerpt: as §7
# [14] = system: P. aeruginosa ATCC 27853; test: MIC and FIC of antibiotics with cysteamine, environments mimicking a CF lung; format: cell-based, Pseudomonas aeruginosa
# Description: as §2, §3
# The range of concentrations of antimicrobial agents was 0-10 μg/ml.
# [15] = system: P. aeruginosa PAO1 planktonic cells; test: MIC in physiologically-relevant ionic concentrations (FIG. 7); format: cell-based, Pseudomonas aeruginosa; settings: in the presence of Ca2+ and in the presence of DNA
# Description: Bacterial growth was followed over a 24 h period and absorbance read using a BioTek microtitre plate reader at 625 nm. Total bacterial growth inhibition was retained in the presence of NaCl, CaCl2 or DNA and at two-fold the normal MIC100 in the presence of mucin. Tobramycin activity was inhibited in the presence of the divalent cation ca^2+ and in the presence of the anionic polymer DNA. […] A similar method as described above (1.4) was used for the determination of the antimicrobial activity of cysteamine (Lynovex®) in the presence of high ionic concentrations. […] Bacterial growth was followed over a 24 h period and absorbance read using a BioTek microtitre plate reader at 625 nm.
# [16] = in combination with Colistin, hydrochloride
# [17] = in combination with Ciprofloxacin, hydrochloride
# [18] = in combination with Gentamicin, hydrochloride
# [19] = in combination with Tobramycin, hydrochloride
# [20] = in combination with Ciprofloxacin
compound,measurement,setting,value
"NCCS [Cysteamine Hydrochloride (Cyst HCl), Cysteamine hydrochloride]",FICI (Additive) Cip,[1]; hydrochloride,0.53 and 0.63 and 0.75 and 0.56
same,FICI (Additive) Col,[1]; [16],0.52 and 0.75 and 0.56 and 0.5
same,FICI (Synergy) Col,[1]; [16],0.38
same,FICI (Additive) Gent,[1]; hydrochloride,0.75
same,FICI (Additive) Cip,[2]; [17],0.56 and 0.63 and 0.5
same,FICI (Synergy) Cip,[2]; [17],0.31 and 0.37 and 0.38
same,FICI (Additive) Col,[2]; hydrochloride,0.51 and 0.5 and 0.53 and 0.52
same,FICI (Additive) Gent,[2]; hydrochloride,0.5 and 0.63 and 0.56
same,FICI (Additive) Tob,[2]; hydrochloride,0.63 and 0.75 and 0.5
same,FICI (Additive) Cip,[3]; [17],0.56 and 0.53
same,FICI (Synergy) Cip,[3]; [17],0.31 and 0.38
same,FICI (Additive) Col,[3]; [16],0.52 and 0.53
same,FICI (Synergy) Col,[3]; [16],0.19 and 0.28 and 0.25 and 0.31
same,FICI (Additive) Gent,[3]; [18],0.53 and 0.52
same,FICI (Additive) Tob,[3]; hydrochloride,0.51 and 0.5
same,FICI (Synergy) Tob,[3]; hydrochloride,0.25 and 0.31 and 0.19
same,FICI (Additive) Cip,[4]; hydrochloride,0.75 and 0.52 and 0.56
same,FICI (Additive) Col,[4]; [16],0.5
same,FICI (Additive) Gent,[4]; [18],0.75 and 0.5
same,FICI (Additive) Tob,[4]; [19],0.51 and 0.53 and 0.5
same,FICI (Synergy) Tob,[4]; [19],0.25 and 0.31 and 0.38 and 0.28 and 0.19
same,FICI (Additive) Cip,[5]; [17],0.53 and 0.5 and 0.63 and 0.56 and 0.75
same,FICI (Synergy) Cip,[5]; [17],0.19 and 0.25
same,FICI (Additive) Col,[5]; [16],0.53 and 0.52 and 0.5
same,FICI (Synergy) Col,[5]; [16],0.25 and 0.31 and 0.19 and 0.26
same,FICI (Additive) Gent,[5]; hydrochloride,0.63
same,FICI (Additive) Tob,[5]; hydrochloride,0.63 and 0.75
"CC(=O)N[C@@H](CS)C(=O)O [N-Acetyl Cysteine (NAC), N-Acetyl cysteine, reference compound]",FICI (Additive) Cip,[1],0.56 and 0.75
same,FICI (Additive) Col,[1]; in combination with Colistin,0.53
same,FICI (Additive) Gent,[1],0.53
same,FICI (Additive) Tob,[1]; in combination with Tobramycin,0.75 and 0.53 and 0.51
same,FICI (Additive) Cip,[2]; [20],0.56 and 0.75
same,FICI (Additive) Col,[2],0.5 and 0.75
same,FICI (Additive) Gent,[2],0.51 and 0.52
same,FICI (Additive) Tob,[2],0.63 and 0.5 and 0.75
same,FICI (Additive) Cip,[3]; [20],0.53 and 0.75
same,FICI (Additive) Col,[3]; in combination with Colistin,0.56 and 0.75 and 0.53 and 0.5 and 0.51
same,FICI (Additive) Tob,[3],0.56 and 0.63
same,FICI (Synergy) Tob,[3],0.25 and 0.31
same,FICI (Additive) Cip,[4],0.56 and 0.75
same,FICI (Additive) Tob,[4]; in combination with Tobramycin,0.53 and 0.52 and 0.5 and 0.56
same,FICI (Additive) Cip,[5]; [20],0.63 and 0.5 and 0.56
same,FICI (Additive) Col,[5]; in combination with Colistin,0.56 and 0.75 and 0.52
same,FICI (Additive) Gent,[5],0.63
same,FICI (Additive) Tob,[5],0.53
"NCCS(=O)(=O)O [Taurine, taurine]",MIC50,[6],> 2000 µg/mL
same,MIC90,[6],> 2000 µg/mL
same,MIC,[6]; read-out: MIC100,> 2000 µg/mL
same,MIC50,[7],> 2000 µg/mL
same,MIC90,[7],> 2000 µg/mL
same,MIC,[7]; read-out: MIC100,> 2000 µg/mL
same,MIC50,[8],> 2000 µg/mL
same,MIC90,[8],> 2000 µg/mL
same,MIC,[8]; read-out: MIC100,> 2000 µg/mL
same,MIC50,[9],> 2000 µg/mL
same,MIC90,[9],> 2000 µg/mL
same,MIC,[9]; read-out: MIC100,> 2000 µg/mL
"NC[C@H]1O[C@H](O[C@H]2[C@H](O)[C@@H](O[C@H]3O[C@H](CO)[C@@H](O)[C@H](N)[C@H]3O)[C@H](N)C[C@@H]2N)[C@H](N)C[C@@H]1O [Tobramycin, reference compound]","minimum biofilm eradication concentration (MBEC), agent alone",[10],4 µg/mL
same,MIC,"[11]; NCTC10743, B. cepacia NCTC10743, FIG. 6, read-out: MIC100, agent alone",> 16 µg/mL
same,MIC,"[11]; NCTC10743, B. cepacia NCTC10743, in both media (MH broth and ASM), FIG. 11, read-out: MIC100, agent alone",> 16 µg/mL
same,MIC,"[11]; NCTC10743, B. cepacia NH10743, ASM (Artificial Sputum Medium), read-out: MIC100, agent alone",> 16 µg/mL
same,MIC,"[11]; NCTC10743, B. cepacia NH10743, CLSI, read-out: MIC100, agent alone",> 16 µg/mL
same,MIC,"[12]; NCTC10744, B. cepacia NH10744, ASM (Artificial Sputum Medium)",> 16 µg/mL
same,MIC,"[12]; NCTC10744, B. cepacia NH10744, CLSI",> 16 µg/mL
same,tobramycin activity in the presence of cysteamine,[13],enhanced
same,MIC upon administration with cysteamine compared to administration alone,[14]; environments mimicking those found in a CF lung,greatly reduced
same,antimicrobial effect in combination with cysteamine,[14]; mucolytic environment,maintained
same,Tobramycin activity,[15],inhibited
